The test system of assay [1] is imiquimod-treated skin of Balb/c mice. The conditions noted are these: reported in a previous study; cited from earlier work.
The test system of assay [2] is IL-36α-injected ears of Balb/c mice. Nature of the assay: Mouse model of IL-36-induced ear thickening (GPP model). The conditions noted are these: intradermal IL36 mouse model (Example 1). In kind it is in vivo. As for the experimental part: (§1) For in vivo dosing, mice were dosed subcutaneously with Compound 1.136 once daily (s.c. q.d. in 1% HPMC) at 90 mg/kg unless stated otherwise, starting at day 0 of a study. The in vivo dose was predicted based on in vitro potency and the pharmacokinetic response to a single dose in mice. The minimum antagonist concentration (at trough) to fully cover a gradient-sensing chemoattractant receptor has been determined to correspond with the IC90 concentration (Schall, T. J., and A. E. Proudfoot. 2011. Overcoming hurdles in developing successful drugs targeting chemokine receptors. Nat Rev Immunol 11: 355-363).
Mouse model of IL-36-induced ear thickening. The right ear of 8-week old Balb/c mice received intradermal injections of recombinant murine IL-36α (150 μg per mouse formulated in PBS; BioLegend) every day for 5 days. Intradermal injections of PBS were given to the left ear as a control. Ear thickness was measured prior to start of study and each day thoughout the study using a digital micrometer. The imiquimod model of psoriasiform dermatitis was performed as previously described (Campbell Jet al. J Immunol. 2017; 199(9):3129-36. van der Fits et al. J Immunol 2009; 182(9):5836-45). Briefly, 5% Imiquimod (Fougera®) was applied daily to the shaved and depilated backs of Balb/c mice for up to 4 days. Control mice were treated with an application of Vaseline. Erythema, desquamation, and skin thickening were scored independently on a scale from 0 to 4 where 0=no disease; 1=slight disease; 2=moderate disease; 3=marked disease; 4=very marked disease (Campbell J et al. J Immunol. 2017; 199(9):3129-36. van der Fits et al. J Immunol 2009; 182(9):5836-45). Skin from the backs of mice was excised at the end of the study and processed for flow cytometry analysis,
Mouse anti-IL-17RA. (R&D Systems) was dosed as a positive control at 200-500 μg per mouse, i.p., q.d.

Assay [3] deals with CD4 T cells, neutrophils and inflammatory dendritic cells within IL-36-treated skin. Nature of the assay: Flow cytometry of leukocytes accumulating in IL-36-treated skin. As to conditions: intradermal IL36 mouse model (Example 1). In kind it is in vivo, mouse. As for the experimental part:
as §1
Flow cytometry of leukocytes. Ears or excised skin samples were digested in collagenase A and 1 U/ml DNAse I with agitation for 30 min at 37° C. Cells were then dislodged from skin, filtered through a […] sieve, washed and re-suspended in FACS buffer (PBS with 10% FBS) for analysis.
Directly conjugated Monoclonal antibodies were from R&D Systems (Minneapolis, Minn.), BioLegend (San Diego, Calif.), or eBioscience/ThermoFisher (San Diego, Calif.). CD45.2 (104) in AlexaFluor488, Ly6C (HK1.4) in PE, CD90.2 (30-H12) in Per CP-Cy5.5, TCRVγ4 (UC3-10A6) in PE-Cy7, TCRβ (H57-597) in APC, CD4 (GK1.5) in APC-eFluor-780, TCRγδ (GL3) in BV-421, LIVE/DEAD fixable Aqua stain (Molecular Probes, Eugene, Oreg.), CD11c (N418) in BV650, Ly6G (1A4) in BV711 and CD11b (M1/70) in BV785. Flow cytometry data were acquired with a Fortessa (BD Biosciences) cytometer and analyzed using FlowJo v10.2
In general terms: Flow cytometry measures light scatter and fluorescence of single cells or particles in a stream.

Take `CC(C)(C)[C@@H](Nc1c(Nc2ccc(Cl)c3c2C(=O)NC3)c(=O)c1=O)c1ccc(Cl)o1` [Compound 1.129]: the “Inflammation in topical imiquimod-induced model of plaque psoriasis” value in assay [1] was “ameliorates inflammation”. Moreover, the IL36-induced inflammation entry in assay [2] is reported as “reduces IL36-induced inflammation”. For the same molecule, the “Accumulation of CD4+αβ T cell population in IL36-inflamed skin” value in assay [3] is “preventing accumulation”.

The values are drawn from patent US11684606B2, “Methods of treating generalized pustular psoriasis with an antagonist of CCR6 or CXCR2” (CHEMOCENTRYX, INC., priority 2018, dated 2023).
